Results published in publication PMC6211260 (Journal of Enzyme Inhibition and Medicinal Chemistry, 2018).
Where two headings read alike, the source gives them in different places.

How the values were obtained:
Type in all cases: cell-based
NCI-60 cell line panel = test: NCI-60 single-dose (10 µM) antiproliferative screening, mean over panel; conditions: single-dose 10 µM, 60-cancer cell line screening
Description: (§1) Screening against the cancer cell lines was carried out at the National Cancer Institute (NCI, Bethesda, Maryland, USA) applying the standard protocol of the NCI[22].
The final target compounds were submitted to the National Cancer Institute (NCI), Maryland, USA[23]. Thirty-one compounds were selected to be tested over 60 cell lines at single dose 10 µM.

CNS cancer cell lines = test: NCI five-dose testing, subpanel mean; conditions: subpanel IV: CNS cancer
Description: as §1

Leukaemia cell lines = test: NCI five-dose testing, subpanel mean; conditions: subpanel I: Leukaemia
Description: as §1

breast cancer cell lines = test: NCI five-dose testing, subpanel mean; conditions: subpanel IX: breast cancer
Description: as §1

colon cancer cell lines = test: NCI five-dose testing, subpanel mean; conditions: subpanel III: colon cancer
Description: as §1

melanoma cell lines = test: NCI five-dose testing, subpanel mean; conditions: subpanel V: melanoma
Description: as §1

[1] = system: non-small cell lung cancer cell lines; test: NCI five-dose testing, subpanel mean; conditions: subpanel II: non-small cell lung cancer
Description: as §1

[2] = system: ovarian cancer cell lines; test: NCI five-dose testing, subpanel mean; conditions: subpanel VI: ovarian cancer
Description: as §1

[3] = system: prostate cancer cell lines; test: NCI five-dose testing, subpanel mean; conditions: subpanel VIII: prostate cancer
Description: as §1

renal cancer cell lines = test: NCI five-dose testing, subpanel mean; conditions: subpanel VII: renal cancer
Description: as §1

[4] = system: A498 renal cancer cell line; test: NCI five-dose testing; conditions: for LC50 (lethal concentration 50%): A498, read-out: LD50 (lethal dose 50); for IC (TGI): read-out: TGI (total growth inhibition concentration)
Description: as §1

[5] = system: HOP-92 non-small cell lung cancer cell line; test: NCI five-dose testing; conditions: for IC (TGI): read-out: TGI (total growth inhibition concentration)
Description: as §1

[6] = system: HT-29 colon cancer cell line; test: NCI five-dose testing; conditions: for CC50: HT-29, read-out: LD50 (lethal dose 50); for IC50: read-out: IC50; for IC (TGI): read-out: TGI (total growth inhibition concentration)
Description: as §1

[7] = system: K-562 leukaemia cell line; test: NCI five-dose testing; conditions: for CC50: K562, read-out: LD50 (lethal dose 50); for IC (TGI): read-out: TGI (total growth inhibition concentration)
Description: as §1

[8] = system: MDA-MB-468 breast cancer cell line; test: NCI five-dose testing; conditions: for CC50: MDA-MB-468, read-out: LD50 (lethal dose 50); for IC (TGI): read-out: TGI (total growth inhibition concentration)
Description: as §1

[9] = system: OVCAR-4 ovarian cancer cell line; test: NCI five-dose testing; conditions: for LC50 (lethal concentration 50): OVCAR-4, read-out: LD50 (lethal dose 50); for IC (TGI): read-out: TGI (total growth inhibition concentration)
Description: as §1

[10] = system: PC-3 prostate cancer cell line; test: NCI five-dose testing; conditions: for LC50 (lethal concentration 50): PC-3, read-out: LD50 (lethal dose 50); for IC50: read-out: IC50; for IC (TGI): read-out: TGI (total growth inhibition concentration)
Description: as §1

[11] = system: SK-MEL-5 melanoma cell line; test: NCI five-dose testing; conditions: for LC50 (lethal concentration 50): SK-MEL-5, read-out: LD50 (lethal dose 50); for IC (TGI): read-out: TGI (total growth inhibition concentration)
Description: as §1

[12] = system: U251 CNS cancer cell line; test: NCI five-dose testing; conditions: for CC50: U-251, read-out: LD50 (lethal dose 50); for IC50: read-out: IC50; for IC (TGI): read-out: TGI (total growth inhibition concentration)
Description: as §1

[13] = Homo sapiens, HOP-92, read-out: LD50 (lethal dose 50)

COc1cccc(-c2nn(-c3ccccc3)cc2-c2ccnc(NCCNS(=O)(=O)c3ccc(C(F)(F)F)cc3)c2)c1 [Compound 1g, N-(2-((4-(3-(3-Methoxyphenyl)-1-phenyl-1H-pyrazol-4-yl)pyridin-2-yl)amino)ethyl)-4-(trifluoromethyl)benzenesulfonamide] showed an inhibition at 10 µM (NCI-60 cell line panel) of 92.8%, an IC50 (CNS cancer cell lines) of 5.28 µM and an IC50 (Leukaemia cell lines) of 3.35 µM. For the same compound, the IC50 (breast cancer cell lines) was 4.05 µM, the IC50 (colon cancer cell lines) was 4.91 µM and the IC50 (melanoma cell lines) was 4.94 µM. For the same compound, the IC50 [1] was 6.36 µM, the IC50 [2] was 6.1 µM and the IC50 [3] was 13 µM. The IC50 (renal cancer cell lines) was 5.32 µM, the IC50 ([4]; Homo sapiens, A498) was 3.4 µM and the LC50 (lethal concentration 50%) ([4]; Homo sapiens) was over 100 µM. It also gave an IC (TGI) ([4]; Homo sapiens, A498) of 6.5 µM, an IC50 ([5]; Homo sapiens, HOP-92) of 2.12 µM and an IC (TGI) ([5]; Homo sapiens, HOP-92, HOP-92) of 6.8 µM. It also gave an LD50 (lethal dose 50) [5, 13] of over 100 µM, a CC50 ([6]; Homo sapiens) of 37.7 µM and an IC50 ([6]; Homo sapiens, HT-29) of 2.32 µM. It also gave an IC (TGI) ([6]; Homo sapiens, HT-29) of 5.7 µM, a CC50 ([7]; Homo sapiens) of over 100 µM and an IC50 ([7]; Homo sapiens, K562, K-562) of 2.87 µM. It also gave an IC (TGI) ([7]; Homo sapiens, K562, K-562) of 19 µM, an IC50 ([8]; Homo sapiens, MDA-MB-468) of 3.31 µM and a CC50 ([8]; Homo sapiens) of over 100 µM. It also gave an IC (TGI) ([8]; Homo sapiens, MDA-MB-468) of over 100 µM, an IC50 ([9]; Homo sapiens, OVCAR-4) of 2.94 µM and an LC50 (lethal concentration 50) ([9]; Homo sapiens) of over 100 µM. It also gave an IC (TGI) ([9]; Homo sapiens, OVCAR-4) of over 100 µM, an LC50 (lethal concentration 50) ([10]; Homo sapiens) of over 100 µM and an IC50 ([10]; Homo sapiens, PC-3) of 2.86 µM. The IC (TGI) ([10]; Homo sapiens, PC-3) was 26.7 µM, the IC50 ([11]; Homo sapiens, SK-MEL-5) was 1.72 µM and the LC50 (lethal concentration 50) ([11]; Homo sapiens) was 5.6 µM. The IC (TGI) ([11]; Homo sapiens, SK-MEL-5) was 3.1 µM, the CC50 ([12]; Homo sapiens) was 63.4 µM and the IC50 ([12]; Homo sapiens, U-251, U251) was 3.54 µM. The IC (TGI) ([12]; Homo sapiens, U-251, U251) was 13.9 µM.

O=S(=O)(NCCNc1cc(-c2cn(-c3ccccc3)nc2-c2cccc(O)c2)ccn1)c1ccc(Br)cc1 [Compound 1k, 4-Bromo-N-(2-((4-(3-(3-hydroxyphenyl)-1-phenyl-1H-pyrazol-4-yl)pyridin-2-yl)amino)ethyl) benzenesulfonamide] showed an IC50 (CNS cancer cell lines) of 2.18 µM, an IC50 (Leukaemia cell lines) of 2.11 µM and an IC50 (breast cancer cell lines) of 2.34 µM. The IC50 (colon cancer cell lines) was 2.29 µM, the IC50 (melanoma cell lines) was 2.03 µM and the IC50 [1] was 2.69 µM. The IC50 [2] was 2.87 µM, the IC50 [3] was 2.54 µM and the IC50 (renal cancer cell lines) was 2.48 µM. For the same compound, the IC50 ([4]; A498) was 3.33 µM, the “LD50 (lethal dose 50)” value ([4]; A498) was 34.3 µM and the IC (TGI) ([4]; A498) was 5.4 µM. The IC50 ([5]; HOP-92) was 2 µM, the “LD50 (lethal dose 50)” value ([5]; HOP-92) was 34.6 µM and the IC (TGI) ([5]; HOP-92) was 5.0 µM. The “LD50 (lethal dose 50)” value ([6]; HT-29) was 17.3 µM, the IC50 ([6]; HT-29) was 2.17 µM and the IC (TGI) ([6]; HT-29) was 5.0 µM. The IC50 ([7]; K-562) was 1.98 µM, the “LD50 (lethal dose 50)” value ([7]; K-562) was over 100 µM and the IC (TGI) ([7]; K-562) was 5.4 µM. For the same compound, the IC50 ([8]; MDA-MB-468) was 2.7 µM, the “LD50 (lethal dose 50)” value ([8]; MDA-MB-468) was over 100 µM and the IC (TGI) ([8]; MDA-MB-468) was 7.7 µM. The IC50 ([9]; OVCAR-4) was 2.32 µM, the “LD50 (lethal dose 50)” value ([9]; OVCAR-4) was over 100 µM and the IC (TGI) ([9]; OVCAR-4) was 13.7 µM. For the same compound, the “LD50 (lethal dose 50)” value ([10]; PC-3) was over 100 µM, the IC50 ([10]; PC-3) was 2.07 µM and the IC (TGI) ([10]; PC-3) was 6.4 µM. The IC50 ([11]; SK-MEL-5) was 1.64 µM, the “LD50 (lethal dose 50)” value ([11]; SK-MEL-5) was 5.6 µM and the IC (TGI) ([11]; SK-MEL-5) was 3.0 µM. For the same compound, the “LD50 (lethal dose 50)” value ([12]; U251) was 25.6 µM, the IC50 ([12]; U251) was 2.21 µM and the IC (TGI) ([12]; U251) was 5.6 µM.

For COc1cccc(-c2nn(-c3ccccc3)cc2-c2ccnc(NCCCNS(=O)(=O)c3cccc(F)c3)c2)c1 [Compound 2h, 3-Fluoro-N-(3-((4-(3-(3-methoxyphenyl)-1-phenyl-1H-pyrazol-4-yl)pyridin-2-yl)amino)propyl)benzenesulfonamide], the inhibition at 10 µM (NCI-60 cell line panel) was 76.8%, the IC50 (CNS cancer cell lines) was 4.49 µM and the IC50 (Leukaemia cell lines) was 3.18 µM. For the same compound, the IC50 (breast cancer cell lines) was 3.49 µM, the IC50 (colon cancer cell lines) was 4.69 µM and the IC50 (melanoma cell lines) was 4.14 µM. It also gave an IC50 [1] of 5.01 µM, an IC50 [2] of 3.88 µM and an IC50 [3] of 4.65 µM. The IC50 (renal cancer cell lines) was 4.25 µM, the IC50 ([4]; Homo sapiens, A498) was 3.52 µM and the LC50 (lethal concentration 50%) ([4]; Homo sapiens) was over 100 µM. The IC (TGI) ([4]; Homo sapiens, A498) was over 100 µM, the IC50 ([5]; Homo sapiens, HOP-92) was 2.42 µM and the IC (TGI) ([5]; Homo sapiens, HOP-92, HOP-92) was over 100 µM. It also gave an LD50 (lethal dose 50) [5, 13] of over 100 µM, a CC50 ([6]; Homo sapiens) of over 100 µM and an IC50 ([6]; Homo sapiens, HT-29) of 2.87 µM. The IC (TGI) ([6]; Homo sapiens, HT-29) was 18.8 µM, the CC50 ([7]; Homo sapiens) was over 100 µM and the IC50 ([7]; Homo sapiens, K562, K-562) was 3.31 µM. For the same compound, the IC (TGI) ([7]; Homo sapiens, K562, K-562) was over 100 µM, the IC50 ([8]; Homo sapiens, MDA-MB-468) was 3.49 µM and the CC50 ([8]; Homo sapiens) was over 100 µM. The IC (TGI) ([8]; Homo sapiens, MDA-MB-468) was 30.4 µM, the IC50 ([9]; Homo sapiens, OVCAR-4) was 3.28 µM and the LC50 (lethal concentration 50) ([9]; Homo sapiens) was over 100 µM. For the same compound, the IC (TGI) ([9]; Homo sapiens, OVCAR-4) was over 100 µM, the LC50 (lethal concentration 50) ([10]; Homo sapiens) was over 100 µM and the IC50 ([10]; Homo sapiens, PC-3) was 2.97 µM. For the same compound, the IC (TGI) ([10]; Homo sapiens, PC-3) was over 100 µM, the IC50 ([11]; Homo sapiens, SK-MEL-5) was 1.86 µM and the LC50 (lethal concentration 50) ([11]; Homo sapiens) was 7.6 µM. The IC (TGI) ([11]; Homo sapiens, SK-MEL-5) was 3.7 µM, the CC50 ([12]; Homo sapiens) was over 100 µM and the IC50 ([12]; Homo sapiens, U-251, U251) was 4.83 µM. For the same compound, the IC (TGI) ([12]; Homo sapiens, U-251, U251) was over 100 µM.
